Assay results reported in US20040241239A1, “Mixed complexes for masking the taste of bitter active substances” (priority 2001, published 2004).
Converted amounts (≈) assume the structure as drawn.

Experiment: Solubility of HMR 3647
Assay type: physicochemical
Procedure: HMR 3647 has the chemical formula C43H65N5O10 and has a molecular weight of 812.0 g/mol. […] At acidic pH, the solubility can be increased to 80 mg/ml, since the protonated cation is formed at this pH.

solubility (aqueous medium at acidic pH, aqueous buffer, acidic pH, protonated cation): 80 mg/mL (≈ 98.5 mM)
water solubility (water): very poorly water-soluble
SMILES: CC[C@H]1OC(=O)[C@H](C)C(=O)[C@H](C)[C@@H](O[C@@H]2O[C@H](C)C[C@H](N(C)C)[C@H]2O)[C@](C)(OC)C[C@@H](C)C(=O)[C@H](C)[C@H]2N(CCCCn3cnc(-c4cccnc4)c3)C(=O)O[C@]12C [HMR 3647]
